Data reported in ChEMBL document CHEMBL1201862, “PubChem BioAssay data set” (2004).
“And” between values parts separate entries of the source, which are not always exact repeats. Identical values can stand only once. The source made the active and inactive calls.

What was measured:
Aminopeptidase N = target: T1, Aminopeptidase N (Plasmodium falciparum FcB1/Columbia, UniProt O96935); assay: P. falciparum M1AAP inhibitors, biochemical, fluorogenic H-Leu-NHMec substrate, 1536-well (AID 1445); set-up: species or system Plasmodium falciparum 3D7, 3D7
T1 sequence (O96935 whole entry): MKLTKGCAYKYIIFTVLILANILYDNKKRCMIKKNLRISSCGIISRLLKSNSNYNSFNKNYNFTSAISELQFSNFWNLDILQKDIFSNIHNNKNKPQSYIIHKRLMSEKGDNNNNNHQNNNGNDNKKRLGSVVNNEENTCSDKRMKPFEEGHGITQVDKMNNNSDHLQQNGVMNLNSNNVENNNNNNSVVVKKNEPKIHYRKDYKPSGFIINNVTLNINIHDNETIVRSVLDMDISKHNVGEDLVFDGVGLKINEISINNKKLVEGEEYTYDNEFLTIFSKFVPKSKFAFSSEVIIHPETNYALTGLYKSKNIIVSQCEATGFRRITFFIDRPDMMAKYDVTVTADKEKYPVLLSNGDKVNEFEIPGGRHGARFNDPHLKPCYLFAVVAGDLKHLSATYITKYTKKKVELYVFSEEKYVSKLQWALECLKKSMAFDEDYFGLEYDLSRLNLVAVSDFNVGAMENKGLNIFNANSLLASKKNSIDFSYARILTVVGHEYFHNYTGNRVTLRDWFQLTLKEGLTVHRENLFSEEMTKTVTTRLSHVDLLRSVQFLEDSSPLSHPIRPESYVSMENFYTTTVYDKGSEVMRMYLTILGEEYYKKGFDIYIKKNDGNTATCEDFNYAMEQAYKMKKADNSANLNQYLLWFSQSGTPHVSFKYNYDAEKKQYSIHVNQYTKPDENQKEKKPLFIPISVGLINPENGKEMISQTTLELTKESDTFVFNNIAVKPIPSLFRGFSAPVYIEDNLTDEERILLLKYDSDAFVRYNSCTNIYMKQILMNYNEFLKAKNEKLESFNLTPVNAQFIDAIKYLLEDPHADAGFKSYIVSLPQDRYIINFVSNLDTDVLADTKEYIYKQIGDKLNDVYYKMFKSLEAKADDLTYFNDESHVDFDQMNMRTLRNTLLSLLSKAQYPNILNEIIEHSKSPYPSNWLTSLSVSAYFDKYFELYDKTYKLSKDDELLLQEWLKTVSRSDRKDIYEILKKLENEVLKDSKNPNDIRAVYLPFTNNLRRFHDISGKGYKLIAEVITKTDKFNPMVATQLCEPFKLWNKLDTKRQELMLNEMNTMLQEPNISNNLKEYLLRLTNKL

Cytochrome P450 3A4 = Cytochrome P450 3A4 (Homo sapiens, UniProt P08684); settings: Potency;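 note: confirmatory qHTS run detecting inhibitors and substrates of CYP3A4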
[1] = target: Glucose-6-phosphate 1-dehydrogenase (Homo sapiens, UniProt P11413); assay: human G6PD enzyme inhibitors, dose response, selectivity assay for P. falciparum G6PD inhibitor project, biochemical, fluorescence (AID 504792); format: functional
Coagulation factor XII = target: T2, Coagulation factor XII (Homo sapiens, UniProt P00748); format: functional;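 note: activated factor XIIa alpha cleaving a fluorogenic AMC peptide substrate; inhibitor potency from loss of enzyme activity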
T2 sequence (P00748 whole entry): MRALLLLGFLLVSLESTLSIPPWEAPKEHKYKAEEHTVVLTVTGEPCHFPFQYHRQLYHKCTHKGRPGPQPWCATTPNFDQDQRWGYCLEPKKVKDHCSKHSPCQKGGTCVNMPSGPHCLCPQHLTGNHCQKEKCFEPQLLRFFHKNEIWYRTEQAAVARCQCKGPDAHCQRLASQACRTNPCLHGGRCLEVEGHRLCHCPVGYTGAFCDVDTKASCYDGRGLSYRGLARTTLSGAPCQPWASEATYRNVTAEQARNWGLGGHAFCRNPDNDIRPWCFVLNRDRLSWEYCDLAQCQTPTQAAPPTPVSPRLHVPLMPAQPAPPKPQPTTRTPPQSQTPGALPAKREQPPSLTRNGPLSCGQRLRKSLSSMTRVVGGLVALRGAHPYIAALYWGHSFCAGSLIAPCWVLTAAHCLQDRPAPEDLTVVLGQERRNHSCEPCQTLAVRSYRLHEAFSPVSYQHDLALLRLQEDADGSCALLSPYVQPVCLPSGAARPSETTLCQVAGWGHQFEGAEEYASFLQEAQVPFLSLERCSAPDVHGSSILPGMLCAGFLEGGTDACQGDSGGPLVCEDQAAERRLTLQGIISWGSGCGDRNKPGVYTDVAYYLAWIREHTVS

Hexokinase = target: T3, Hexokinase (Trypanosoma brucei, UniProt Q38C41); assay: Confirmation assay for inhibitors of Trypanosoma brucei hexokinase 1-Analogue-first series. [Related pubchem assays (depositor defined):AID1430, AID1632, AID2516, AID2560, AID2579, AID2600, AID449725, AID492951]; format: functional
T3 sequence (Q38C41 whole entry): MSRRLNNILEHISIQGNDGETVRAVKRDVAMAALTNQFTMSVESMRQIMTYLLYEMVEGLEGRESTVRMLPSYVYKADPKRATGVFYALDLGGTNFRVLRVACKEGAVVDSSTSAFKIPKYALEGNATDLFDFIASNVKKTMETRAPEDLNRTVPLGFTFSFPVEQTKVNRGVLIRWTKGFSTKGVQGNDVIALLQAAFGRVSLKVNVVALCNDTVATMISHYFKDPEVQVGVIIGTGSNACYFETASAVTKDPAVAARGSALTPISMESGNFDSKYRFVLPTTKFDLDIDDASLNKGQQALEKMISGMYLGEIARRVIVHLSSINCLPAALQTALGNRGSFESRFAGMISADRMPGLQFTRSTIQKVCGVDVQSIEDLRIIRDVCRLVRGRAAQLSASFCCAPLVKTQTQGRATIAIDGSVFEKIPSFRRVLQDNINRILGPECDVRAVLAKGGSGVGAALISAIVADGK

[2] = target: T4, Alkaline phosphatase, tissue-nonspecific isozyme (Homo sapiens, UniProt P05186); assay: human TNAP enzyme inhibitors, SAR follow-up, biochemical, luminescent, dose response (AID 1056)
T4 sequence (P05186 whole entry): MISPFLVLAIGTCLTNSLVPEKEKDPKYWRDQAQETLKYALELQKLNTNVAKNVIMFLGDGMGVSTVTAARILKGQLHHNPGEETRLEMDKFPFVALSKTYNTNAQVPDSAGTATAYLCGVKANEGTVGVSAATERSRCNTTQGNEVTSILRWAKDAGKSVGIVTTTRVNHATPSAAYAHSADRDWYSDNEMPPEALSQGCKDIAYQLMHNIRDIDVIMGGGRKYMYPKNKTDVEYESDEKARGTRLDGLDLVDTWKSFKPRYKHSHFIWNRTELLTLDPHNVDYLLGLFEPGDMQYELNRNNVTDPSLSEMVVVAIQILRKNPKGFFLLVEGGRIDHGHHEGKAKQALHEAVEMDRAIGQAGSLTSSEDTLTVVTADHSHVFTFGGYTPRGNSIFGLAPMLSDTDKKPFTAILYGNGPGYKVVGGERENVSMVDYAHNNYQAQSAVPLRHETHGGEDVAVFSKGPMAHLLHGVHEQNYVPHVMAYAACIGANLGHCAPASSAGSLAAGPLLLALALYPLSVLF

[3] = target: Alkaline phosphatase, placental type (Homo sapiens, UniProt P05187); assay: PLAP enzyme inhibitors, confirmation, biochemical, luminescence (AID 1512); format: functional
[4] = target: T5, Voltage-gated N-type calcium channel alpha-1B subunit/Amyloid beta A4 precursor protein-binding family A member 1 (Homo sapiens, UniProt Q00975+Q02410); format: protein assay
[5] = target: T5, Voltage-gated N-type calcium channel alpha-1B subunit/Amyloid beta A4 precursor protein-binding family A member 1; format: protein assay; remark: listed apart in the source
Troponin, cardiac muscle = Troponin, cardiac muscle (Homo sapiens, UniProt P19429+P45379+P63316); assay: Fluorescence-based biochemical high throughput dose response assay for activators of the calcium sensitivity of cardiac Regulated Thin Filaments (RTF). [Related pubchem assays (depositor defined):AID493008, AID493018, AID504382, AID504383]; format: protein-complex assay
cells = format: functional
[6] = THP-1 cell cytotoxicity, dose response, cytotoxicity control for non-replicating M. tuberculosis project (AID 489025); format: functional
[7] = target: DNA dC->dU-editing enzyme APOBEC-3A (Homo sapiens, UniProt P31941); assay: Dose Response confirmation of small molecule APOBEC3A DNA Deaminase Inhibitors via a fluorescence-based single-stranded DNA deaminase assay. [Related pubchem assays (depositor defined):AID493011, AID493024]; format: functional
[8] = target: DNA dC->dU-editing enzyme APOBEC-3G (Homo sapiens, UniProt Q9HC16); format: functional;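 note: Dose-response counterscreen measuring inhibition of APOBEC3G DNA deaminase activity, run while confirming APOBEC3A inhibitors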
[9] = target: T6, Mannose-6-phosphate isomerase (Homo sapiens, UniProt P34949); assay: PMI enzyme inhibitors, confirmation, biochemical, fluorescence intensity (AID 1535)
T6 sequence (P34949 whole entry): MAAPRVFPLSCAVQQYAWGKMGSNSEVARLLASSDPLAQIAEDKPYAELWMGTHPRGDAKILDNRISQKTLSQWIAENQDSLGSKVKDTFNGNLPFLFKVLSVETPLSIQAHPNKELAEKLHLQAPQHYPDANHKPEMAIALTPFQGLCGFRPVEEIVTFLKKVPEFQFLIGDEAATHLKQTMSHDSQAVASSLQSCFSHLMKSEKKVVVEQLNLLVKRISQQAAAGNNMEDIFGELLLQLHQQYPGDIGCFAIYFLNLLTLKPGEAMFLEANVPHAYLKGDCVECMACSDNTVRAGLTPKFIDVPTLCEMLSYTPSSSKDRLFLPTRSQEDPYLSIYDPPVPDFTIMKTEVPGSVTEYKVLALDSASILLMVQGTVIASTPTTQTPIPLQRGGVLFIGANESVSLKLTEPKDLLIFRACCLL

Phosphomannomutase 2 = target: T7, Phosphomannomutase 2 (Homo sapiens, UniProt O15305); assay: Counter screen SAR assay for PMM2 inhibitors via a fluorescence intensity assay. [Related pubchem assays (depositor defined):AID1545, AID1574]
T7 sequence (O15305 whole entry): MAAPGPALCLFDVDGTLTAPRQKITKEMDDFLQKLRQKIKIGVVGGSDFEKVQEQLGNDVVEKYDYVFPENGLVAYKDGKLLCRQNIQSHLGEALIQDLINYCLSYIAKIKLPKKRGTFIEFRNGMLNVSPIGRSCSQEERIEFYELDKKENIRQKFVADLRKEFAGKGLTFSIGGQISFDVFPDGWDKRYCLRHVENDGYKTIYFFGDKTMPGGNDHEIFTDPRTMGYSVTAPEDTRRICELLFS

[10] = cytotoxicity in HEK-293T cells, dose response, cytotoxicity control for BCR NF-kB inhibitor project, luminescence, B-cell screen hits (AID 489021); format: functional, cell-based;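 note: HEK-293T cells carrying an NF-kB luciferase reporter; cells exposed to compound for about 14 hours before viability readout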
Large T antigen = Large T antigen (Simian virus 40, UniProt P03070); format: functional, Betapolyomavirus macacae;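 note: Confirmatory-stage PubChem screen for compounds that inhibit SV40 T antigen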
Sequence of Large T antigen (P03070 whole entry): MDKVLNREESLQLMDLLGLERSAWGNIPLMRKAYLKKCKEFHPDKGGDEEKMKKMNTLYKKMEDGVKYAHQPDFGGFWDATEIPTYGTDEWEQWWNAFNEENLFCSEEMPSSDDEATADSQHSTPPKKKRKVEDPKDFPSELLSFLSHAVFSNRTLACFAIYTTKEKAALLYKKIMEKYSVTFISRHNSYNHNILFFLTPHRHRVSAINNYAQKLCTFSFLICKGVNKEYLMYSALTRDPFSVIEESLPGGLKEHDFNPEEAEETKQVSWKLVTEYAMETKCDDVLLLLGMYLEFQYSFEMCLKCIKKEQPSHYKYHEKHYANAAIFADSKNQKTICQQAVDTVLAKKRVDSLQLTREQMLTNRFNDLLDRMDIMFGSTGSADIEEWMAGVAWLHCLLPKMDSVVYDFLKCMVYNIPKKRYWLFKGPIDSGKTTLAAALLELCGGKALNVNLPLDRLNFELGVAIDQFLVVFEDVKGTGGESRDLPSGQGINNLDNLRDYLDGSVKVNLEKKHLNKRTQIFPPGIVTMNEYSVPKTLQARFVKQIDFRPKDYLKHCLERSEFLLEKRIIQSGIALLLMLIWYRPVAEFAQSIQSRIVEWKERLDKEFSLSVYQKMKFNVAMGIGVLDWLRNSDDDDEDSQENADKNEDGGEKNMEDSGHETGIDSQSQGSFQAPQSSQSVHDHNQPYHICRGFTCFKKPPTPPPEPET

Sequence of Cytochrome P450 3A4 (P08684 whole entry): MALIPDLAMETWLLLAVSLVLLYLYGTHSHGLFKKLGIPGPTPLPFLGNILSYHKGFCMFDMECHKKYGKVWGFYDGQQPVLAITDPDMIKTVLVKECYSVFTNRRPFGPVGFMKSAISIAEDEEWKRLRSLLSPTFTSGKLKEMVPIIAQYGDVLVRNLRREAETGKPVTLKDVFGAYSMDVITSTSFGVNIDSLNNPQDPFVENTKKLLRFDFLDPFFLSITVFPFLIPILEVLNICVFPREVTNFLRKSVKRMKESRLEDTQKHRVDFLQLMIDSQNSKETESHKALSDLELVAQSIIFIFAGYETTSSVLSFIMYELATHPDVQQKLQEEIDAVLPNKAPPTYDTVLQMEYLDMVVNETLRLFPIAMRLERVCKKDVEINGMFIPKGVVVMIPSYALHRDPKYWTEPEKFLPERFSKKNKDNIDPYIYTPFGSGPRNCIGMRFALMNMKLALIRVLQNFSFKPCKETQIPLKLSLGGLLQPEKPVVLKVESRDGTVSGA
T5 sequence (Q00975 whole entry): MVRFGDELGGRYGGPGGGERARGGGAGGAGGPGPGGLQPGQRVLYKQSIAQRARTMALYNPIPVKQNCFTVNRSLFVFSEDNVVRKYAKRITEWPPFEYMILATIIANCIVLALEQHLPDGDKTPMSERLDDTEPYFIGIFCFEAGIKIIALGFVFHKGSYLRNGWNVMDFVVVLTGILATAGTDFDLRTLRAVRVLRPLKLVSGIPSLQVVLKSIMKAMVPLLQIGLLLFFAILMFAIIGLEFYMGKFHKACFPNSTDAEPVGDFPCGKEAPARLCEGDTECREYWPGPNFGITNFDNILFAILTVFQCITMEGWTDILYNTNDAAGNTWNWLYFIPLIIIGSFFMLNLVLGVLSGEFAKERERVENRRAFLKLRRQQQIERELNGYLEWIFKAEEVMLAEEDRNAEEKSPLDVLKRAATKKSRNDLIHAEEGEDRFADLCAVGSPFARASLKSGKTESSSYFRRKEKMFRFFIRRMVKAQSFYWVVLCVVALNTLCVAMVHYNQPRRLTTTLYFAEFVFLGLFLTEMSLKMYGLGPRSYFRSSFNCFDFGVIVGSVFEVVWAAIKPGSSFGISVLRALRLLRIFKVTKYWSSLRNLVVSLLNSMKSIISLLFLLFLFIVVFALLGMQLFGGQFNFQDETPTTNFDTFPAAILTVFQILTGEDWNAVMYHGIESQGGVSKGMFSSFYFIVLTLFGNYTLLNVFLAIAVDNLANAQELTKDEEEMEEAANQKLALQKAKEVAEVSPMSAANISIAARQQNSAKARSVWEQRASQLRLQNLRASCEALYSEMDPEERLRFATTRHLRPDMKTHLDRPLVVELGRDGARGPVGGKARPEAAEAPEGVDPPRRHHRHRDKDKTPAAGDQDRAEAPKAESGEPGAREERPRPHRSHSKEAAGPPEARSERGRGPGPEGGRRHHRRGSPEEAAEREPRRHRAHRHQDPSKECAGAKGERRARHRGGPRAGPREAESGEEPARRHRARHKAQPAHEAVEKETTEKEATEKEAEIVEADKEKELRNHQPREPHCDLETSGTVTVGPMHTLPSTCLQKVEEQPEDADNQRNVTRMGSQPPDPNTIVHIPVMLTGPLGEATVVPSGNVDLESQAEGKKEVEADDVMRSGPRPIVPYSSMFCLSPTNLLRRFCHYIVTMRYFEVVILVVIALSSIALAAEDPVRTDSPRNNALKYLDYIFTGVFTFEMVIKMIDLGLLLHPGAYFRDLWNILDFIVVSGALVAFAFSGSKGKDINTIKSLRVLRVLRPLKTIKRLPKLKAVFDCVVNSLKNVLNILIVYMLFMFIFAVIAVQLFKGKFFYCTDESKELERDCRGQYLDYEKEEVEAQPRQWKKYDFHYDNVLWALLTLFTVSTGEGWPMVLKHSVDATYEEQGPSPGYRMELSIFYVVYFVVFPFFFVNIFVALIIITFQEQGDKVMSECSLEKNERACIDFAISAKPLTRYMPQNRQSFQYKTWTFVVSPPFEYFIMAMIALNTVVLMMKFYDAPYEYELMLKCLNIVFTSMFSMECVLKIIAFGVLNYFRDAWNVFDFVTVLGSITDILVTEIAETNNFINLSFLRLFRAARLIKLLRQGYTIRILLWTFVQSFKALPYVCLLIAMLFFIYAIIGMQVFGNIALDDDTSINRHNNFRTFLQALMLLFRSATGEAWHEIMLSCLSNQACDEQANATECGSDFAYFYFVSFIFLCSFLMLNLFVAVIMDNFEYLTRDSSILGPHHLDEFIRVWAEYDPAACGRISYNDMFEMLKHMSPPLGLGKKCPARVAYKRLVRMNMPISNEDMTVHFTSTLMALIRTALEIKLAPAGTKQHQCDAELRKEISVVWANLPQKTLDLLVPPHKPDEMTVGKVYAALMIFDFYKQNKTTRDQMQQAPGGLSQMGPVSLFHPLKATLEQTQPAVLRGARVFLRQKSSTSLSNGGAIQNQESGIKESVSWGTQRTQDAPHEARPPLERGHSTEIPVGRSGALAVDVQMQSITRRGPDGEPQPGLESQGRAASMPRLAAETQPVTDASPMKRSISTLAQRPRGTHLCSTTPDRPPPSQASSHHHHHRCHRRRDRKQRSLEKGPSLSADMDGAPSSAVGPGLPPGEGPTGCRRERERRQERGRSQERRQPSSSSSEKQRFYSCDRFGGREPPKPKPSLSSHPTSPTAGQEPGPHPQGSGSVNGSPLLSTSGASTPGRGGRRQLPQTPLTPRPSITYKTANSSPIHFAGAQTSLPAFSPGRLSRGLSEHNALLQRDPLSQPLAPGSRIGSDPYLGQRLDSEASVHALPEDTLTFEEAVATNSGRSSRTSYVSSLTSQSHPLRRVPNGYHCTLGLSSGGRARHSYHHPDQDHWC
T5 sequence (Q02410 whole entry): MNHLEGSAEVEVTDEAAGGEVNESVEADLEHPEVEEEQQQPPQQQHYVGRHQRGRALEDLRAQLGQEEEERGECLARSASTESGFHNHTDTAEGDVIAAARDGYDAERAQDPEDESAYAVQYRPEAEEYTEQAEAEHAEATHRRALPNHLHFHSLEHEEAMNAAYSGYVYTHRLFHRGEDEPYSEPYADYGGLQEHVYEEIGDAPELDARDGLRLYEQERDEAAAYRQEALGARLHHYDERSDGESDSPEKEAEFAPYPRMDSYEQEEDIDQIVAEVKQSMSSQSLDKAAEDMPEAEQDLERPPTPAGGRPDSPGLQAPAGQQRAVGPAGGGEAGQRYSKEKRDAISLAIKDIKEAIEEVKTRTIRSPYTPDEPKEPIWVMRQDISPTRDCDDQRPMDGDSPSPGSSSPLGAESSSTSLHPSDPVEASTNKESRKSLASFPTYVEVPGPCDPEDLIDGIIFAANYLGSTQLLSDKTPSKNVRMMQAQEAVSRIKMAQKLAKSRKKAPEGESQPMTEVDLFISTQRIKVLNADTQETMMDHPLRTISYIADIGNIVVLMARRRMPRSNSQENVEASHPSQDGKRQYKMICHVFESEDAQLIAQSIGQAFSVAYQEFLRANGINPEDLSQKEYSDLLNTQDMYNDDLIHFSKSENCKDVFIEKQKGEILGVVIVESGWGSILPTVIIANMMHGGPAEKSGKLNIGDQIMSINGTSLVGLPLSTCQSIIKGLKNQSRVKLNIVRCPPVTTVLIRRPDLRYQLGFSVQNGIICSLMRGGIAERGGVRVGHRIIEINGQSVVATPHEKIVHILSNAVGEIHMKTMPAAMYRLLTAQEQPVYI
Sequence of DNA dC->dU-editing enzyme APOBEC-3G (Q9HC16 whole entry): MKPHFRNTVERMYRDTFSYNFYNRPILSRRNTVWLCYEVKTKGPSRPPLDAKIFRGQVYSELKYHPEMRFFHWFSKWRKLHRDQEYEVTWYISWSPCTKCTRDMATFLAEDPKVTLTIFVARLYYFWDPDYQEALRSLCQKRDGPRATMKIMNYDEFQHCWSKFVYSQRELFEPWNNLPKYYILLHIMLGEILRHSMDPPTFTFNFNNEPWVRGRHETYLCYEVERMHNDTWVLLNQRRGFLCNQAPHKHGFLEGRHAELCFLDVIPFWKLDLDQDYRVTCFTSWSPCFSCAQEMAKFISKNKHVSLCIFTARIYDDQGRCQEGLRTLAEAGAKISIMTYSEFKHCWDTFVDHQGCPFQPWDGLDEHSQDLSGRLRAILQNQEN
Sequence of DNA dC->dU-editing enzyme APOBEC-3A (P31941 whole entry): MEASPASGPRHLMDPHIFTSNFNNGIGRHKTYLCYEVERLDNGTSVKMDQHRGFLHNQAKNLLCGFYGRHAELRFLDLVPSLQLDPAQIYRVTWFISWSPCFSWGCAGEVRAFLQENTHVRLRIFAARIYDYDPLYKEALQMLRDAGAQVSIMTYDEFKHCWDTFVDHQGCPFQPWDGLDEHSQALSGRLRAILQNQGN

Compound: CCCCc1cc(=O)oc2c(CN(C)C)c(O)c(Cl)cc12
- IC50 (Aminopeptidase N): 27.3 µM (active)

Compound: C#CCCCCCCCCCCCC(O)CC(O)CO (configuration not stated) [AVOCADYNE]
- AC50 (Cytochrome P450 3A4): 39.8 µM (inconclusive)

Compound: COc1cc(C(=O)O/N=C2\C=CC(=O)C=C2C)cc(OC)c1OC
- IC50 [1]: > 80 µM (inactive)
- IC50 (Coagulation factor XII): 10.3 µM (active)

Compound: O=c1c2ccccc2sn1-c1ccccc1Cl
- IC50 (Hexokinase): 1.97 µM (active)

Compound: Cc1ccc(-c2nnc(SCC(=O)c3ccc(O)c(O)c3)n2-c2ccccc2)cc1
- IC50 [2]: > 100 µM (inactive)
- IC50 [3]: > 100 µM (inactive)

Compound: CN1C(=O)C(=C/C=C/Nc2ccccc2)C(=O)N(C)C1=S
- IC50 [4]: 6.18 µM (active)
- IC50 [5]: > 50 µM (inactive)

Compound: CC1(C)CC(=O)C=C(Nc2ccccc2N)C1
- EC50 (Troponin, cardiac muscle): > 71.5 µM (inactive)

Compound: O=C(OCC(=O)N1CCN(c2ccccc2)CC1)c1cnc(Cl)c(Cl)c1
- IC50 (cells): 3.69 µM (active)
- CC50 [6]: 34.2 µM (active)

Compound: COc1ccc(C(=O)Nc2cc(Cl)ccc2C#N)cc1
- IC50 (Hexokinase): > 25 µM (inactive)

Compound: N#Cc1cccc(NC(=O)C[n+]2c3n(c4ccc(C(F)(F)F)cc42)CCCCC3)c1
- IC50 [7]: 1.97 µM (active)
- IC50 [8]: 2.75 µM (active)

Compound: COc1ccc(N2C(=O)c3ccc(Cl)cc3C2=O)cc1
- IC50 (Hexokinase): > 25 µM (inactive)

Compound: CCOC(=O)c1cc(-c2cccc([N+](=O)[O-])c2)nc2[nH]c(=O)[nH]c(=O)c12
- IC50 (Aminopeptidase N): 7.44 µM (active)

Compound: Cc1cc2n(n1)SC(Nc1cc(Cl)ccc1Cl)N2 (configuration not stated)
- IC50 [9]: > 50 µM (inactive)
- IC50 (Phosphomannomutase 2): > 100 µM (inactive)

Compound: CCC(=O)OCC(=O)C1(OC(=O)CC)C(C)CC2C3CCC4=CC(=O)C=CC4(C)C3(Cl)C(O)CC21C (configuration not stated)
- AC50 (Cytochrome P450 3A4): 12.6 µM (inconclusive)

Compound: CC(C)C[C@@H](N)c1nnc(SCC(=O)c2ccc(Cl)cc2)o1
- IC50 [10]: > 80 µM (inactive)

Compound: O=c1c2ccccc2sn1-c1ncc([N+](=O)[O-])s1
- IC50 [9]: 22.7 µM (active)
- IC50 (Phosphomannomutase 2): > 100 µM (inactive)

Compound: O=S(=O)(c1ccc(S(=O)(=O)N2CCCC2)cc1)N1CCCCCC1
- IC50 (Coagulation factor XII): > 50 µM (inactive)

Compound: O=C(O)c1cc(NCc2ccc(F)cc2)ccc1N1CCOCC1
- EC50 (Troponin, cardiac muscle): > 71.5 µM (inactive)

Compound: N=C1/C(=C\c2coc3ccc(O)cc3c2=O)C(=O)N=C2SC=CN12
- IC50 (Large T antigen): 15.8 µM (active)
- IC50 (Aminopeptidase N): 57.6 µM (active)

Compound: O=c1cc(-c2ccccc2)oc2cccc(O)c12 [5-HYDROXYFLAVONE]
- AC50 (Cytochrome P450 3A4): 6.31 µM (inconclusive) and 20 µM (inconclusive)

Compound: COc1ccc(N2C(=O)CC(Nc3cccc([N+](=O)[O-])c3)C2=O)cc1 (configuration not stated)
- IC50 (Coagulation factor XII): > 50 µM (inactive)

Compound: CC(=O)Nc1ccc(OC(=O)c2cc3cc(Br)ccc3oc2=O)cc1
- IC50 [4]: 2 µM (active)
- IC50 [5]: > 50 µM (inactive)

Compound: Cn1c(=O)cc(OCCCC(=O)N2CCCCC2)c2ccccc21
- IC50 [10]: > 80 µM (inactive)
